# Test results: patent US20160058304A1, “SYSTEM AND METHOD FOR VESSEL ARCHITECTURAL IMAGING” (priority 2013, published 2016)
# How the values were obtained:
# recurrent glioblastomas [1] = test: Phase II clinical trial of cediranib in recurrent glioblastoma, retrospective VAI (MRI) analysis; assay type: in vivo, human
# Description: The study was approved by the institutional review board and informed consent was obtained from all subjects. Subject data included 13 females and 17 males diagnosed with a recurrent glioblastoma, average age 52 years, range 20-78 years. After study termination, nine subjects received one subsequent cycle of salvage chemotherapy, eight subjects received two cycles, one subject received three cycles, two subjects had undisclosed information on salvage chemotherapy and one subject received stereotactic radiosurgery.
# Baseline MRI examinations were acquired prior to therapy onset (days −5 and −1), and then repeated on days 1, 28, 56 and 112 after cediranib (AstraZeneca Pharmaceuticals) anti-angiogenic therapy onset or until disease progression according to the Macdonald criteria. All imaging were performed on a 3 Tesla Magnetom Trio MRI system (Siemens Medical Solutions) as follows:
# 4. Dynamic susceptibility contrast (DSC) perfusion images. Axial dual-echo echo-planar images with repetition-time 1.33 s, echo-times 34 ms and 103 ms, slice-thickness 5 mm, inter-slice distance 2.5 mm, in-plane resolution 1.70:1.70 mm, matrix size 128:128, 10 slices and 120 volumes. After approximately 85 s of imaging, a 0.2 mmol kg−1 dose of Gd-DTPA was injected at 5 cc s−1.
# We obtained relaxation rate curves for VAI analysis, perfusion values, blood volumes and mean transit times using established tracer kinetic models on the DSC images, corrected for contrast agent leakage (from blood-brain-barrier breakdown or resection) and fitted to a gammavariate curve for better visualization of vessel vortex effects. It has been speculated that contrast agent leakage is the reason for the clockwise vortex effect. […] Here, the pre-dose of Gd-DTPA during DCE imaging saturated potential leaky tumor tissue in the DSC images thereby minimizing the influence of leakage-induced T1-shortening effects. Relaxation rate curves not suited for analysis, conveying highly fluctuating time-courses from partial volume effects, voxel shifts and physiological pulsations were excluded from further analysis. Across all 30 subjects, an average of 78.21 percent±12.78 percent (standard deviation) of all tumor voxels met the inclusion criteria. To account for potential global systemic effects from hypertension, tumor relaxation rate curves were scaled with corresponding slice-specific mean, normal-tissue reference curves. In all figures showing vessel vortex curves, the tails of the vortex curves have been cut short to better visualize vortex direction. VAI analysis was performed using custom-made software in Matlab and traditional MRI was analyzed in nordicICE (NordicNeuroLab AS).
# A subject was assumed to have an increase (decrease) in voxels with a clockwise vortex direction if the clockwise- to counter-clockwise ratio was higher (lower) than the 95 percent confidence interval of the population arithmetic mean for two consecutive imaging time points. […] Differences in VAI parameters during therapy were assessed using pairwise Wilcoxons Signed Rank test. Differences in tumor volumes, vessel caliber, permeability, perfusion and mean transit times were assessed using Mann-Whitney tests. Associations between changes in vessel vortex direction ratios and progression-free survival and overall survival were assessed using multinomial logistic regression, Kaplan-Meier survival analysis and Cox regression after adjustments for age, extent of resection, neurological performance, salvage chemotherapy and stereotactic radiosurgery after study termination as well as changes in permeability (Ktrans), T1-weighted contrast-enhanced tumor volume and T2-weighted FLAIR tumor volume prior to, and during, anti-angiogenic therapy. For all tests, P=0.05 was considered significant (with Holm-Bonferroni correction for multiple comparisons) and pixel values below a 5 percent percentile and above a 95 percent percentile were removed prior to analysis to reduce the influence of outliers. […]
# recurrent glioblastomas [2] = conditions: background statement on cediranib trial; cited from earlier work
compound,measurement,setting,value
COc1cc2c(Oc3ccc4[nH]c(C)cc4c3F)ncnc2cc1OCCCN1CCCC1 [cediranib],Relative number of image voxels with a clockwise vortex direction in the tumor after therapy onset,"recurrent glioblastomas [1]; 30 subjects collectively, pair-wise Wilcoxons Signed Ranks test P<0.05",significant increase
same,"Median overall survival, nonresponders","recurrent glioblastomas [1]; non-responders = relative decrease in image voxels with clockwise vortex direction, recurrent glioblastoma",146 days
same,"Median overall survival, non-responding patients","recurrent glioblastomas [1]; non-responders with stable or reduced perfusion, P<0.001",169 days
same,"Median overall survival, responding subjects","recurrent glioblastomas [1]; responders = relative increase in image voxels with clockwise vortex direction at two consecutive imaging time points, recurrent glioblastoma",341 days
same,Longer survival of responding vs non-responding patients,recurrent glioblastomas [1]; responders by increased perfusion vs non-responders,approximately 6 months
same,Shunt index values at days 1 and 28,"recurrent glioblastomas [1]; responders by vascular normalization compared to non-responders, P<0.05",reduced
same,"Median overall survival, responding patients","recurrent glioblastomas [1]; responders identified by increased perfusion (vascular normalization), P<0.001",348 days
same,Contrast enhanced and FLAIR tumor volumes at day 28,"recurrent glioblastomas [1]; responders vs non-responders, Mann-Whitney P<0.05",significant reductions
same,Whole-tumor vessel calibers compared to pre-treatment,"recurrent glioblastomas [1]; responding subjects, P<0.01",significant reductions
same,Longer survival of patients whose tumor perfusion increased during treatment,recurrent glioblastomas [2],approximately 6 months
